Data from paper PMC11756168, “Drug-drug interaction between ensitrelvir and tacrolimus in a patient undergoing treatment for COVID-19: a case report” (Journal of Pharmaceutical Health Care and Sciences, 2025).
“Also recorded” adds a separate entry of the source.

Columns and labels:
[1] = One-compartment calculation of TAC elimination half-life from consecutive blood levels; format: in vivo; conditions: human, po, 1.5 mg, read-out: calculated t1/2 of TAC (converted)
Description: Assuming a one-compartment model, the elimination rate constant (ke), elimination half-life (t1/2), and maximum plasma concentration (Cmax) of TAC were calculated as follows: ke=lnC1/C2/T2-T1
(§1) t1/2=0.693/ke Cmax=Ctrough+F*Dose/Vd
(§2) where C1 and C2 represent the TAC blood levels at times T1 and T2 in the same dosing interval (T2 > T1), respectively. Ctrough represents TAC blood levels immediately before administration and dose represents the TAC dose. The volume of distribution (Vd) was assumed to be 42 L (1 L/kg based on a body weight of 42 kg). If the Ctrough was unavailable, Ctrough was estimated using ke.

[2] = One-compartment simulation of TAC levels with various F values; parameters: species or system human; conditions: for half-life: human, blood, oral, read-out: Estimated TAC half-life (converted)
Excerpt: as §1, §2
Next, we evaluated the duration of DDI using ensitrelvir. […] Consequently, when F was set to 0.125, the simulated TAC levels matched the measured levels at 7:00 on day 8 (Supplemental Table S1). The estimated F value of TAC (0.125) was similar to that reported in a previous report (0.25 ± 0.20), which indicates the limited effect of ensitrelvir on the intestinal absorption of TAC. […] These pharmacokinetic analyses indicate that the DDI effect of ensitrelvir gradually diminishes over 7–10 days after its discontinuation. […] Therefore, caution regarding DDI with ensitrelvir should be exercised for 7–10 days after discontinuation of ensitrelvir. Furthermore, in the case of irreversible CYP3A inhibition, the timing of CYP3A expression recovery varies among individuals. Therefore, TAC after ensitrelvir treatment should be restarted at a reduced dosage and its blood levels should be closely monitored.
^a The tacrolimus level was estimated using a one-compartment pharmacokinetics model for oral administration, without considering the absorption rate constant. For tacrolimus levels after day 8, only values predicted with F = 0.125 are shown.

[3] = Laboratory parameters (Scr, ALT) in the patient; format: in vivo, human
[4] = Pharmacokinetics of TAC (literature); format: in vivo; conditions: human, blood; assumed, 1 L/kg at body weight 42 kg; read-out: volume of distribution (Vd) of TAC
[5] = cited from earlier work
[6] = TAC blood level monitoring (Siemens Dimension EXL200, ACMIA method) in the patient; conditions: human
[7] = test system: SARS-CoV-2; test: SARS-CoV2 PCR cycle threshold (Ct) in the patient; format: in vivo
Description: On the day of admission, the patient was started on a five-day course of remdesivir (200 mg IV once, followed by 100 mg IV every 24 h for 4 days). The patient was also administered corticosteroid (day -30 to -21, dexamethasone 6 mg PO, once daily after breakfast; day -20 to -17, prednisolone 30 mg PO, once daily after breakfast). On day -23, baricitinib (2 mg PO, once daily after breakfast for 6 days) was administered. On day -17, methylprednisolone (1,000 mg IV, once daily for 5 days) was administered, followed by dexamethasone (6 mg IV, once daily after breakfast). The cycle threshold (Ct) value from the SARS-CoV2 PCR after treatment ([…]) was 25.73, indicating persistent viral presence; therefore, a second five-day course of remdesivir was administered. On day -13, tocilizumab (360 mg IV, once daily) was administered. […] Consequently, a third course of remdesivir was initiated on day -2 (200 mg IV once, followed by 100 mg IV daily for 9 days). On day 0, the patient was started on ensitrelvir treatment (375 mg PO once, followed by 125 mg PO for 4 days) in combination with remdesivir. At the time of the start of ensitrelvir therapy (day 0), the patient was taking the following medications: TAC (1.5 mg PO, once daily after dinner), dexamethasone (6 mg IV, once daily), sulfamethoxazole/trimethoprim (400 mg/80 mg PO, once daily after breakfast), rosuvastatin (5 mg PO, once daily after breakfast), nicorandil (5 mg PO, 3 times daily after meals), aspirin (100 mg PO, once daily after breakfast), esomeprazole (20 mg PO, once daily after breakfast), rivastigmine patch (18 mg, once daily), and subcutaneous denosumab (60 mg, every six months). The patient had received a COVID-19 vaccine approximately one year ago. The patient had no supplements or over-the-counter drugs. Grapefruit was not offered during the hospital stay. Before the start of ensitrelvir therapy, a clinical pharmacist informed the attending physician regarding the potential DDI between ensitrelvir and TAC or rosuvastatin (BCRP substrate) and recommended avoiding the concomitant use. Consequently, TAC was discontinued from the day before the start of ensitrelvir (day -1), and TAC blood levels were frequently monitored using a Siemens Dimension EXL200 with Flex Cartridge Tacrolimus (ACMIA method, Siemens). Rosuvastatin treatment was discontinued on day 0. Given that ensitrelvir is metabolized by CYP3A [17], dexamethasone, which reportedly induces CYP3A [18], was replaced with methylprednisolone on day 1.

[8] = Pharmacokinetics of ensitrelvir (literature); format: in vivo, human; conditions: suggested from t1/2 51.4 h
[9] = CT imaging of the lungs in the patient; format: in vivo, human; conditions: day 18, after ensitrelvir in combination with remdesivir
[10] = test system: CYP3A
[11] = test system: CYP3A; conditions: ensitrelvir co-administration; cited from earlier work
[12] = test system: P-gp; parameters: method as in PMID 37043676; conditions: cited from earlier work
[13] = cited from earlier work; remark: listed apart in the source
[14] = test system: CYP3A and P-gp; conditions: cited from earlier work
[15] = test system: Cytochrome P450 3A (CYP3A); conditions: cited from earlier work
[16] = test system: P-glycoprotein (P-gp); parameters: method as in PMID 37043676, PMID 37171749; conditions: cited from earlier work
[17] = test system: breast cancer resistance protein (BCRP); parameters: method as in PMID 37043676, PMID 37171749; conditions: cited from earlier work

`C=CC[C@@H]1/C=C(\C)C[C@H](C)C[C@H](OC)[C@H]2O[C@@](O)(C(=O)C(=O)N3CCCC[C@H]3C(=O)O[C@H](/C(C)=C/[C@@H]3CC[C@@H](O)[C@H](OC)C3)[C@H](C)[C@@H](O)CC1=O)[C@H](C)C[C@@H]2OC` [TAC, Tacrolimus] gave a half-life ([1]; day 0 to 2, under ensitrelvir) of 71.9 h, a half-life ([1]; day 2 to 5, under ensitrelvir) of 115 h and a half-life ([1]; day -1 to 0, before ensitrelvir) of 33.7 h. The “estimated F value of TAC” value ([2]; after ensitrelvir administration, simulated levels matched measured level at 7:00 on day 8) was 0.125, the half-life ([2]; 1 mg, day 8 to 12, assuming bioavailability 0.125) was 39.9 h and the half-life ([2]; 1 mg, day 12 to 14, assuming bioavailability 0.125) was 23.4 h. For the same compound, the half-life ([2]; Day5, 7:00 to Day8, 7:00, hypothesized to continue from days 2-5 until day 8) was 115 h, the Scr levels ([3]; TAC maintained at 1.5 mg daily, normal range 0.75—1.0 mg/dL) was “within normal range” and the Vd [4] was 42 L. For the same compound, the “volume of distribution (Vd) of TAC” value ([5]; assumed) was 1 L/kg, the “F value of TAC in a previous report” value [5] was 0.25 ± 0.20 and the “reported t1/2 of TAC” value [5] was 32 h. The concentration at 11 h ([6]; oral) was 5.1 ng/mL, the concentration at 12 h ([6]; oral, 1 mg) was 6.5 ng/mL and the concentration at 20 h ([6]; oral, 1 mg) was 3.7 ng/mL. It also gave a concentration at 21.5 h ([6]; oral, 1.5 mg) of 3.6 ng/mL, a concentration at 35.5 h ([6]; oral, 1.5 mg) of 2.7 ng/mL and a concentration at 83.5 h ([6]; oral, 1.5 mg) of 1.7 ng/mL. For the same compound, the concentration at 155.5 h ([6]; oral, 1.5 mg) was 1.1 ng/mL, the concentration at 5 days ([6]; oral, 2 mg) was 6.6 ng/mL and the concentration at 36 h ([6]; po, 0.2 mg) was 1 ng/mL. For the same compound, the concentration at 12 h ([6]; po, 1 mg) was 3.9 ng/mL.
In the case of `Cn1cnc(Cn2c(=O)[nH]/c(=N\c3cc4cn(C)nc4cc3Cl)n(Cc3cc(F)c(F)cc3F)c2=O)n1` [ensitrelvir, Ensitrelvir], the “SARS-CoV-2 PCR Ct value” ([7]; day 0, start of ensitrelvir in combination with remdesivir) is reported as 25.88, the “SARS-CoV-2 PCR Ct value” ([7]; day 5, ensitrelvir in combination with remdesivir) is reported as 30.03 and the “SARS-CoV-2 PCR Ct value” ([7]; day 12, after ensitrelvir in combination with remdesivir) is reported as 34.36. For the same compound, the “SARS-CoV-2 PCR Ct value” ([7]; day 19, after ensitrelvir in combination with remdesivir) was 34.89, the Scr level ([3]; during ensitrelvir treatment) was “remained within normal ranges” and the “alanine aminotransferase (ALT) level” value ([3]; during ensitrelvir treatment) was “remained within normal ranges”. The “time required to clear ensitrelvir from the body” value [8] was 7 to 8 days, the “CT imaging of lung fields” value [9] was “improved inflammation in both lung fields” and the “time over which the DDI effect diminished/resolved” value ([10]; after discontinuation of ensitrelvir) was 7 to 10 days. The “increase in the AUC of TAC by inhibition of CYP3A in the liver” value ([10]; inferred from t1/2 prolongation) was “threefold increase”, the “increase of AUC of midazolam” value [11] was 6.7 fold and the “increase of t1/2 of midazolam” value [11] was 2.3 fold. For the same compound, the “effect on AUC of digoxin (P-gp substrate)” value [12] was “increased the AUC of digoxin”, the half-life of ensitrelvir [13] was “approximately 50 h” and the “increase in TAC trough/blood levels with concurrent ensitrelvir” value [14] was “approximately threefold; also recorded: approximate three-fold increase”. The “inhibition of CYP3A” value [15] was “strongly inhibits”, the “manner of CYP3A inhibition” value [15] was “time-dependent and irreversible manner” and the “inhibition of P-gp” value [16] was “strongly inhibits”. For the same compound, the “inhibition of BCRP” value [17] was “strongly inhibits”.
In the case of `CCC(CC)COC(=O)[C@H](C)N[P@](=O)(OC[C@H]1O[C@@](C#N)(c2ccc3c(N)ncnn23)[C@H](O)[C@@H]1O)Oc1ccccc1` [remdesivir], the “SARS-CoV2 PCR Ct value” ([7]; after first five-day course of remdesivir, day 15 (so in the source)) is reported as 25.73 and the “SARS-CoV2 PCR Ct value” ([7]; day -7, after second five-day course of remdesivir) is reported as 26.18.
